Values of other authors in patent EP3085364A1, “PHARMACEUTICAL COMBINED PREPARATION CONTAINING HMG-COA REDUCTASE INHIBITOR AND CHOLESTEROL ABSORPTION INHIBITOR” (Alvogen Korea Co., Ltd., priority 2013, dated 2015).
Where two headings read alike, the source gives them in different places.

Columns and labels:
[1] = room temperature

| solubility in organic solvents (ethanol, methanol, or acetone) | solubility in water | stability [1] | solubility in organic solvents (N,N-dimethylformamide, acetone, or acetonitrile) | SMILES |
| --- | --- | --- | --- | --- |
| freely to very soluble | practically insoluble | stable | – | O=C1[C@H](CC[C@H](O)c2ccc(F)cc2)[C@@H](c2ccc(O)cc2)N1c1ccc(F)cc1 [Ezetimibe, 1-(4-fluorophenyl)-(3R)-[3-(4-fluorophenyl)-(3S)-hydroxypropyl]-(4S)-(4-hydroxyphenyl)-2-azetidinone] |
| – | sparingly soluble | – | soluble | CC(C)c1nc(N(C)S(C)(=O)=O)nc(-c2ccc(F)cc2)c1/C=C/[C@@H](O)C[C@@H](O)CC(=O)O [Rosuvastatin calcium, (E)-7-[4-(4-fluorophenyl)-6-isopropyl-2-[methyl(methylsulfonyl)amino]pyrimidin-5-yl]-(3R,5S)-3,5-dihydroxyhept-6-enic acid] |
